From BigSolDB 2.1

O=C1CCc2cc(O)ccc2N1
solubility (mole fraction) (in THF, 278.15 K): 0.00248 | solubility (mole fraction) (in THF, 283.15 K): 0.00277 | solubility (mole fraction) (in THF, 288.15 K): 0.00307 | solubility (mole fraction) (in THF, 293.15 K): 0.00346 | solubility (mole fraction) (in THF, 298.15 K): 0.00383 | solubility (mole fraction) (in THF, 303.15 K): 0.00424 | solubility (mole fraction) (in THF, 308.15 K): 0.00473 | solubility (mole fraction) (in THF, 313.15 K): 0.00526 | solubility (mole fraction) (in THF, 318.15 K): 0.00591 | solubility (mole fraction) (in THF, 323.15 K): 0.00651 | solubility (mole fraction) (in acetonitrile, 278.15 K): 0.000292 | solubility (mole fraction) (in acetonitrile, 283.15 K): 0.000345 | solubility (mole fraction) (in acetonitrile, 288.15 K): 0.000403 | solubility (mole fraction) (in acetonitrile, 293.15 K): 0.00048 | solubility (mole fraction) (in acetonitrile, 298.15 K): 0.000576 | solubility (mole fraction) (in acetonitrile, 303.15 K): 0.000668 | solubility (mole fraction) (in acetonitrile, 308.15 K): 0.000784 | solubility (mole fraction) (in acetonitrile, 313.15 K): 0.000887 | solubility (mole fraction) (in acetonitrile, 318.15 K): 0.00102 | solubility (mole fraction) (in acetonitrile, 323.15 K): 0.00118 | solubility (mole fraction) (in ethanol, 278.15 K): 0.00214 | solubility (mole fraction) (in ethanol, 283.15 K): 0.00242 | solubility (mole fraction) (in ethanol, 288.15 K): 0.00281 | solubility (mole fraction) (in ethanol, 293.15 K): 0.00324 | solubility (mole fraction) (in ethanol, 298.15 K): 0.00373 | solubility (mole fraction) (in ethanol, 303.15 K): 0.00431 | solubility (mole fraction) (in ethanol, 308.15 K): 0.00496 | solubility (mole fraction) (in ethanol, 313.15 K): 0.00574 | solubility (mole fraction) (in ethanol, 318.15 K): 0.00664 | solubility (mole fraction) (in ethanol, 323.15 K): 0.00761 | solubility (mole fraction) (in ethyl acetate, 278.15 K): 0.000666 | solubility (mole fraction) (in ethyl acetate, 283.15 K): 0.000723 | solubility (mole fraction) (in ethyl acetate, 288.15 K): 0.000792 | solubility (mole fraction) (in ethyl acetate, 293.15 K): 0.00086 | solubility (mole fraction) (in ethyl acetate, 298.15 K): 0.000927 | solubility (mole fraction) (in ethyl acetate, 303.15 K): 0.000992 | solubility (mole fraction) (in ethyl acetate, 308.15 K): 0.00108 | solubility (mole fraction) (in ethyl acetate, 313.15 K): 0.00115 | solubility (mole fraction) (in ethyl acetate, 318.15 K): 0.00122 | solubility (mole fraction) (in ethyl acetate, 323.15 K): 0.00131 | solubility (mole fraction) (in isobutanol, 278.15 K): 0.00114 | solubility (mole fraction) (in isobutanol, 283.15 K): 0.00134 | solubility (mole fraction) (in isobutanol, 288.15 K): 0.00162 | solubility (mole fraction) (in isobutanol, 293.15 K): 0.00192 | solubility (mole fraction) (in isobutanol, 298.15 K): 0.00229 | solubility (mole fraction) (in isobutanol, 303.15 K): 0.00268 | solubility (mole fraction) (in isobutanol, 308.15 K): 0.00316 | solubility (mole fraction) (in isobutanol, 313.15 K): 0.00378 | solubility (mole fraction) (in isobutanol, 318.15 K): 0.00427 | solubility (mole fraction) (in isobutanol, 323.15 K): 0.00493 | solubility (mole fraction) (in isopropanol, 278.15 K): 0.00186 | solubility (mole fraction) (in isopropanol, 283.15 K): 0.00226 | solubility (mole fraction) (in isopropanol, 288.15 K): 0.0026 | solubility (mole fraction) (in isopropanol, 293.15 K): 0.003 | solubility (mole fraction) (in isopropanol, 298.15 K): 0.00346 | solubility (mole fraction) (in isopropanol, 303.15 K): 0.00395 | solubility (mole fraction) (in isopropanol, 308.15 K): 0.00471 | solubility (mole fraction) (in isopropanol, 313.15 K): 0.0055 | solubility (mole fraction) (in isopropanol, 318.15 K): 0.00631 | solubility (mole fraction) (in isopropanol, 323.15 K): 0.00721 | solubility (mole fraction) (in methanol, 278.15 K): 0.00224 | solubility (mole fraction) (in methanol, 283.15 K): 0.0027 | solubility (mole fraction) (in methanol, 288.15 K): 0.00309 | solubility (mole fraction) (in methanol, 293.15 K): 0.00356 | solubility (mole fraction) (in methanol, 298.15 K): 0.00412 | solubility (mole fraction) (in methanol, 303.15 K): 0.0048 | solubility (mole fraction) (in methanol, 308.15 K): 0.00551 | solubility (mole fraction) (in methanol, 313.15 K): 0.00648 | solubility (mole fraction) (in methanol, 318.15 K): 0.00745 | solubility (mole fraction) (in methanol, 323.15 K): 0.00838 | solubility (mole fraction) (in methyl acetate, 278.15 K): 0.00155 | solubility (mole fraction) (in methyl acetate, 283.15 K): 0.00172 | solubility (mole fraction) (in methyl acetate, 288.15 K): 0.00188 | solubility (mole fraction) (in methyl acetate, 293.15 K): 0.00209 | solubility (mole fraction) (in methyl acetate, 298.15 K): 0.00231 | solubility (mole fraction) (in methyl acetate, 303.15 K): 0.00257 | solubility (mole fraction) (in methyl acetate, 308.15 K): 0.00287 | solubility (mole fraction) (in methyl acetate, 313.15 K): 0.00316 | solubility (mole fraction) (in methyl acetate, 318.15 K): 0.00352 | solubility (mole fraction) (in methyl acetate, 323.15 K): 0.00391 | solubility (mole fraction) (in n-butanol, 278.15 K): 0.00181 | solubility (mole fraction) (in n-butanol, 283.15 K): 0.00201 | solubility (mole fraction) (in n-butanol, 288.15 K): 0.00232 | solubility (mole fraction) (in n-butanol, 293.15 K): 0.00269 | solubility (mole fraction) (in n-butanol, 298.15 K): 0.00309 | solubility (mole fraction) (in n-butanol, 303.15 K): 0.00357 | solubility (mole fraction) (in n-butanol, 308.15 K): 0.00409 | solubility (mole fraction) (in n-butanol, 313.15 K): 0.00473 | solubility (mole fraction) (in n-butanol, 318.15 K): 0.00543 | solubility (mole fraction) (in n-butanol, 323.15 K): 0.00623 | solubility (mole fraction) (in n-propanol, 278.15 K): 0.00173 | solubility (mole fraction) (in n-propanol, 283.15 K): 0.00202 | solubility (mole fraction) (in n-propanol, 288.15 K): 0.00236 | solubility (mole fraction) (in n-propanol, 293.15 K): 0.0027 | solubility (mole fraction) (in n-propanol, 298.15 K): 0.00314 | solubility (mole fraction) (in n-propanol, 303.15 K): 0.00364 | solubility (mole fraction) (in n-propanol, 308.15 K): 0.00419 | solubility (mole fraction) (in n-propanol, 313.15 K): 0.00482 | solubility (mole fraction) (in n-propanol, 318.15 K): 0.00554 | solubility (mole fraction) (in n-propanol, 323.15 K): 0.00641
